One experiment concerns the target T1, beta-1 adrenoceptor (Rattus norvegicus, UniProt P18090).
T1 construct: from tissue; host or cells: heart of the pithed rat, in vivo
Kind of experiment: Inhibition of isoproterenol induced tachycardia in the pithed rat. The format is in vivo. Particulars: read-out: Effective Dose (ID50).

Another experiment addresses T2, beta adrenoceptor (Cavia porcellus, UniProt H0W3H1).
T2 construct: in the spontaneously beating guinea pig atrium; from tissue; host or cells: guinea pig atrium
Kind of experiment: Inhibition of the positive chronotropic isoproterenol effect in spontaneously beating guinea pig atrium. Type of experiment: cell-based.

A further experiment concerns tracheal muscle. Kind of experiment: Tracheal preparations of the guinea pig, blockade of isoproterenol relaxation. The format is cell-based. The conditions noted are these: for blocking effect of the responses to isoproterenol in the trachea: at concentrations as high as 3×10^-5 mol/l; for selectivity for the cardiac beta 1 adrenoceptor: atria vs trachea, in words.
Experiment [1] relates to cardiac contractile force. Nature of the experiment: Cardiac contractile force in anaesthetised, vagotomized, spinalised cat. The format is in vivo. Particulars: in words. The method, then:
In the anaesthetised, vagotomized cat spinalised at the level of second cervical vertebrae the compounds exert an increase in cardiac contractile force at a dose of from about 20 to about 2,500 ug/kg i.v. as measured with a strain gauge arch sewn into the left ventricle. The effect may also be measured as a concentration dependent stimulation of the isolated spontaneously beating guinea pig atrium.

Structures are written as SMILES.

T2 sequence (H0W3H1 1-470): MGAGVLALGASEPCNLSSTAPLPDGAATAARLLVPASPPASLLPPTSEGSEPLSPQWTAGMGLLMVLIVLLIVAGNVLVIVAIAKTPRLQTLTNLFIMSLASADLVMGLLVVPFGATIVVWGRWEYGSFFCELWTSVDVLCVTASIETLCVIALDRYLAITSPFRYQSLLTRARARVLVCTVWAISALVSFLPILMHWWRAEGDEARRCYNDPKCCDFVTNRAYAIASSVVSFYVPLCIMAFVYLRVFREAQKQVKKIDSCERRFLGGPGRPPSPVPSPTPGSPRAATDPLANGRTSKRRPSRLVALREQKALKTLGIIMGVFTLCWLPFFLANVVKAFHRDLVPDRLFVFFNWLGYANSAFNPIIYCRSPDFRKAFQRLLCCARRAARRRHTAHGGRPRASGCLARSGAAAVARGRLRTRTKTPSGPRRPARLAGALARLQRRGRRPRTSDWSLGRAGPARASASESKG
T1 sequence (P18090 whole entry): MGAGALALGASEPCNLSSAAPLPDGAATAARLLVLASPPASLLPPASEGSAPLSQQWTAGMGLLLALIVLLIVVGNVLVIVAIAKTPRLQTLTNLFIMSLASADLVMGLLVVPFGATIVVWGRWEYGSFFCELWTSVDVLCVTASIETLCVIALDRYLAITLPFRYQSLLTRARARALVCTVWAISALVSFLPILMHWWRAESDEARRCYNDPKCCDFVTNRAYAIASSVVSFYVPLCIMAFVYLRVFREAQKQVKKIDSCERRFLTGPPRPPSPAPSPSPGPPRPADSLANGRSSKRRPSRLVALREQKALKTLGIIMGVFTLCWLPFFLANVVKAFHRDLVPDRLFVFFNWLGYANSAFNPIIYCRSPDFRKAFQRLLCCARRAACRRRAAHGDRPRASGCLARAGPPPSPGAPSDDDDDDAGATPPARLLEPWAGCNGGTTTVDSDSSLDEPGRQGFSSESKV

In the case of `CC(C)COCCOc1ccc(OCC(O)CN[C@H](C)CNC(=O)C2CCOCC2)cc1` (some centres unmarked) [Example 21], on beta-1 adrenoceptor, the ED50 is 0.005 mg/kg. The compound further came in with a Kb on beta adrenoceptor of 70 nM.
For the compound `O=C(NCCNCC(O)COc1ccc(OCCOCCc2ccc(F)cc2)cc1)C1CCOCC1` (centres unmarked) [Example 6], on beta-1 adrenoceptor, the ED50 is 0.03 mg/kg. In the experiment on tracheal muscle, the “blocking effect of the responses to isoproterenol in the trachea” value (from here on “blocking effect of the responses”) is listed as “no blocking effect” and the “selectivity for the cardiac beta 1 adrenoceptor” value was “virtually absolute selectivity”. At beta adrenoceptor, this compound showed a Kb of 20 nM.
Regarding `CC(C)COCCOc1ccc(OCC(O)CNCCNC(=O)C2CCOCC2)cc1` (centres unmarked) [Example 4], at beta-1 adrenoceptor, the ED50 was determined as 0.02 mg/kg. In addition, in the experiment on tracheal muscle, the “blocking effect of the responses” value is recorded as “no blocking effect” and the “selectivity for the cardiac beta 1 adrenoceptor” value is reported as “virtually absolute selectivity”. Besides, on beta adrenoceptor, the Kb was 50 nM.
Regarding `O=C(NCCNCC(O)COc1ccc(O)cc1F)C1CCOCC1` (centres unmarked) [Example 33, 1-(2-fluoro-4-hydroxyphenoxy)-3-[2-(tetrahydropyran-4-ylcarbonylamino)ethylamino]-2-propanol], the “balance between the agonistic and antagonistic activities” value in experiment [1] is reported as “particularly favourable”.
As for `CCCOCCOc1ccc(OCC(O)CNCCNC(=O)C2CCOCC2)c(F)c1` (centres unmarked) [Example 2, 1-(2-fluoro-4-(2-propoxy-ethoxy)phenoxy)-3-(2-(tetrahydropyran-4-yl-carbonylamino)ethylamino)-2-propanol], the ED50 at beta-1 adrenoceptor came to 0.02 mg/kg. Besides, in the experiment with tracheal muscle, the “blocking effect of the responses” value is “no blocking effect” and the “selectivity for the cardiac beta 1 adrenoceptor” value was “virtually absolute selectivity”. This compound gave a Kb on beta adrenoceptor of 50 nM.
Take `C[C@H](CNC(=O)C1CCOCC1)NCC(O)COc1ccc(OCCOCC2CCCC2)cc1` (some centres unmarked) [Example 15]: on beta-1 adrenoceptor, the ED50 is 0.01 mg/kg. In the experiment with tracheal muscle, the “blocking effect of the responses” value was “no blocking effect” and the “selectivity for the cardiac beta 1 adrenoceptor” value was “virtually absolute selectivity”. This compound showed a Kb on beta adrenoceptor of 30 nM.
For `CCCOCCOc1ccc(OC[C@@H](O)CN[C@H](C)CNC(=O)C2CCOCC2)cc1` [Example 10, (S)-1-(4-(2-propoxyethoxy)phenoxy)-((R)-2-(tetrahydropyran-4-ylcarbonylamino)-1-methylethylamino)-2-propanol], on beta-1 adrenoceptor, the ED50 is 0.0006 mg/kg. The compound further displayed a Kb on beta adrenoceptor of 30 nM.
With `CCCOCCOc1ccc(OCC(O)CNCCNC(=O)C2CCOCC2)cc1` (centres unmarked) [Example 3], the ED50 at beta-1 adrenoceptor was determined as 0.015 mg/kg. Moreover, in the experiment on tracheal muscle, the “blocking effect of the responses” value is on record as “no blocking effect” and the “selectivity for the cardiac beta 1 adrenoceptor” value is listed as “virtually absolute selectivity”. The compound further came in with a Kb on beta adrenoceptor of 80 nM.
As for `O=C(NCCNCC(O)COc1ccc(OCCOCC2CCCC2)cc1)C1CCOCC1` (centres unmarked) [Example 5], the ED50 at beta-1 adrenoceptor was determined as 0.03 mg/kg. In addition, in the experiment with tracheal muscle, the “blocking effect of the responses” value is on record as “no blocking effect” and the “selectivity for the cardiac beta 1 adrenoceptor” value is reported as “virtually absolute selectivity”. This compound also registered a Kb on beta adrenoceptor of 30 nM.
Turning to `CCCOCCOc1ccc(OC[C@@H](O)CNC(C)CNC(=O)C2CCOCC2)cc1` (stereo partly drawn) [Example 9, (S)-1-(4-(2-propoxyethoxy)phenoxy)-3((R,S)-2-(tetrahydropyran-4-ylcarbonylamino)-1-methylethylamino)-2-propanol], the ED50 at beta-1 adrenoceptor came out at 0.003 mg/kg. For the same compound, the “balance between the agonistic and antagonistic activities” value in experiment [1] was “particularly favourable”. This compound gave a Kb on beta adrenoceptor of 40 nM.
On to `CCCOCCOc1ccc(OC[C@@H](O)CN[C@@H](C)CNC(=O)C2CCOCC2)cc1` [Example 11, (S)-1-(4-(2-propoxyethoxy)phenoxy)-3-((S)-2-(tetrahydropyran-4-yl-carbonylamino)-1-methylethylamino)-2-propanol], for which the ED50 at beta-1 adrenoceptor came to 0.02 mg/kg. At beta adrenoceptor, this compound showed a Kb of 160 nM.
On to `CC(C)NCC(O)COc1ccc(CC(N)=O)cc1` (centres unmarked) [Atenolol, reference compound], for which the selectivity in the experiment on tracheal muscle (guinea pig atria vs trachea, known selective beta adrenoceptor blockers) turned out to be 20.
As to `Cc1cc(OCCOCC2CC2)ccc1OCC(O)CNCCNC(=O)C1CCOCC1` (centres unmarked) [Example 1, 1-(2-Methyl-4-(2-cyclopropylmethoxyethoxy)-phenoxy)-3-(2-(tetrahydropyran-4-yl-carbonylamino)ethylamino)-2-propanol], the ED50 on beta-1 adrenoceptor turned out to be 0.1 mg/kg. The Kb at beta adrenoceptor was found to be 120 nM.
In the same order, the values of `CCCOCCOc1ccc(OCC(O)CNCCNC(=O)C2CCOCC2)c(C#N)c1` (centres unmarked) [Example 8] are 0.02 mg/kg and 70 nM.
In the same order, the values of `O=C(NCCNCC(O)COc1ccc(OCCOCc2ccc(F)cc2)cc1)C1CCOCC1` (centres unmarked) [Example 7] are 0.02 mg/kg and 200 nM.

The record behind these values is US5242943A, “3-aminopropoxyphenyl derivatives, their preparation and pharmaceutical compositions containing them” (Louis; William J., priority 1984, dated 1993).
